“Also recorded” adds a separate entry of the source.
Test system: NCI-60 cell lines
Format: cell-based, human

IGAVSGW was tested, and the “Cell Line (NCI-60 cell line the peptide is associated with)” value was “SNB-75 CNS”.
For GEGSGSA, the “Cell Line the peptide is associated with (peptide recovered from phage library selection on this NCI-60 cell line)” value was “MDA-MB-435-Breast”.
WGSSAVK was tested, and the “Cell Line (NCI-60 cell line the peptide and its motif are associated with)” value was “IGROV1 Ovarian”.
In the case of MSNLAAV, the “Cell Line (NCI-60 cell line the peptide is associated with)” value is reported as “COLO-205-Colon”.
For GGLSRSN, the “Cell Line (NCI-60 cell line the peptide is associated with)” value was “SF-268 CNS”.
With IDLVSPG the “Cell Line (NCI-60 cell line the peptide and its motif are associated with)” value was “OVCAR-8 Ovarian”.
For SALRVGL, the “Cell Line the peptide is associated with (peptide recovered from phage library selection on this NCI-60 cell line)” value was “BT-549 Breast”.
In the case of AGRRFGG, the “Cell Line with which the peptide (and its tripeptide motif) is associated” value (from here on “Cell Line with which the peptide”) is reported as “EKVX-Lung”.
For TRGAVFG, the “Cell Line (NCI-60 cell line the peptide and its motif are associated with)” value was “SK-MEL-5 Melanoma”.
With GGLPVQM the “Cell Line (NCI-60 cell line the peptide and its motif are associated with)” value was “PC3 Prostate”.
YLGRRVS was tested, and the “Cell Line (NCI-60 cell line the peptide is associated with)” value was “SW620-Colon”.
In the case of YFRARGS, the “Cell Line (NCI-60 cell line the peptide and its motif are associated with)” value is reported as 786-0 Renal.
For ARRGLGL, the “Cell Line (NCI-60 cell line the peptide is associated with)” value was “SNB-75 CNS”.
For AGSVDLV, the “Cell Line (NCI-60 cell line the peptide and its motif are associated with)” value was “SK-MEL-5 Melanoma”.
For RAAVSAI, the “Cell Line with which the peptide” value was “Molt-4-Leukemia”.
For IGLRGEN, the “Cell Line (NCI-60 cell line the peptide is associated with)” value was “SNB-75 CNS”.
With RGVGWAK the “Cell Line with which the peptide” value was “H322-Lung”.
LRSVGSW was tested, and the “Cell Line (NCI-60 cell line the peptide is associated with)” value was “HCT-15 Colon”.
With RASCALT the “Cell Line with which the peptide” value was “HL-60-Leukemia”.
RGVGAKA was tested, and the “Cell Line the peptide is associated with (peptide recovered from phage library selection on this NCI-60 cell line)” value was “NCI/ADR-RES Breast”.
VPSGSVR was tested, and the “Cell Line the peptide is associated with (peptide recovered from phage library selection on this NCI-60 cell line)” value was “NCI/ADR-RES Breast”.
FLRGVEL was tested, and the “Cell Line (NCI-60 cell line the peptide and its motif are associated with)” value was “SK-OV-3-3 Ovarian”.
In the case of LIRAVSA, the “Cell Line with which the peptide” value is reported as “H460-Lung”.
LELLSVV was tested, and the “Cell Line (NCI-60 cell line the peptide is associated with)” value was “SNB-75 CNS”.
In the case of RLSTFAG, the “Cell Line (NCI-60 cell line the peptide is associated with)” value is reported as “SNB-19 CNS; also recorded: SF-539 CNS”.
LLRPGTV was tested, and the “Cell Line (NCI-60 cell line the peptide is associated with)” value was “HCC-2998-Colon”.
For RGVVSAK, the “Cell Line with which the peptide” value was “Hop-92-Lung”.
HLRGRGV was tested, and the “Cell Line with which the peptide” value was “EKVX-Lung”.
For GVSGTVS, the “Cell Line (NCI-60 cell line the peptide and its motif are associated with)” value was “IGROV1 Ovarian”.
With GAVRARL the “Cell Line with which the peptide” value was “SR Leukemia”.
RSSYAPP was tested, and the “Cell Line the peptide is associated with (peptide recovered from phage library selection on this NCI-60 cell line)” value was “ACHN Renal”.
With RRVSLVA the “Cell Line with which the peptide” value was “CCRF-CEM Leukemia”.
In the case of IGGREIT, the “Cell Line with which the peptide” value is reported as “H23-Lung”.
In the case of RRHGLLS, the “Cell Line with which the peptide” value is reported as “K-562-Leukemia”.
GEGRLCG was tested, and the “Cell Line the peptide is associated with (peptide recovered from phage library selection on this NCI-60 cell line)” value was “CAIK-1 Renal”.
In the case of IGRLLPL, the “Cell Line with which the peptide” value is reported as “HL-60-Leukemia”.
GAVVKPI was tested, and the “Cell Line with which the peptide” value was “A549-Lung”.
For GVLGCDG, the “Cell Line (NCI-60 cell line the peptide and its motif are associated with)” value was “PC3 Prostate”.
For TNRFARG, the “Cell Line the peptide is associated with (peptide recovered from phage library selection on this NCI-60 cell line)” value was “T-47D Breast”.
For NNVGGSS, the “Cell Line (NCI-60 cell line the peptide and its motif are associated with)” value was “OVCAR-4 Ovarian”.
In the case of AFKTGGS, the “Cell Line (NCI-60 cell line the peptide and its motif are associated with)” value is reported as “M14 Melanoma”.
In the case of RIFHGAV, the “Cell Line (NCI-60 cell line the peptide is associated with)” value is reported as “SNB-19 CNS; also recorded: SF-539 CNS”.
In the case of LMGRASG, the “Cell Line with which the peptide” value is reported as “SR Leukemia”.
With WRVRSSG the “Cell Line (NCI-60 cell line the peptide is associated with)” value was “HCT-15 Colon”.
In the case of LSAVSVK, the “Cell Line (NCI-60 cell line the peptide and its motif are associated with)” value is reported as “SK-MEL-5 Melanoma”.
With LVSTRWA the “Cell Line the peptide is associated with (peptide recovered from phage library selection on this NCI-60 cell line)” value was “RXF393 Renal”.
With NPGLVWN the “Cell Line the peptide is associated with (peptide recovered from phage library selection on this NCI-60 cell line)” value was “MDA-MB-231 Breast”.
HGGPGAV was tested, and the “Cell Line (NCI-60 cell line the peptide is associated with)” value was “LOX-IMVI Melanoma”.
In the case of KRAVGRM, the “Cell Line (NCI-60 cell line the peptide and its motif are associated with)” value is reported as “A498 Renal”.
In the case of VARSSFR, the “Cell Line (NCI-60 cell line the peptide and its motif are associated with)” value is reported as “IGROV1 Ovarian”.
In the case of KGDGSVR, the “Cell Line (NCI-60 cell line the peptide and its motif are associated with)” value is reported as “SK-OV-3-3 Ovarian”.
In the case of SGARLRS, the “Cell Line the peptide is associated with (peptide recovered from phage library selection on this NCI-60 cell line)” value is reported as “T-47D Breast”.
In the case of DWGSRGV, the “Cell Line the peptide is associated with (peptide recovered from phage library selection on this NCI-60 cell line)” value is reported as “MDA-MB-231 Breast”.
With QLGGSFR the “Cell Line (NCI-60 cell line the peptide and its motif are associated with)” value was “SK-MEL-28 Melanoma”.
VLRGSTP was tested, and the “Cell Line (NCI-60 cell line the peptide and its motif are associated with)” value was “PC3 Prostate”.
In the case of GRLAVVA, the “Cell Line (NCI-60 cell line the peptide is associated with)” value is reported as “HT-29 Colon”.
In the case of AWLLSGR, the “Cell Line (NCI-60 cell line the peptide and its motif are associated with)” value is reported as “UACC 257 Melanoma”.
With RAVLELW the “Cell Line (NCI-60 cell line the peptide and its motif are associated with)” value was “SK-MEL-28 Melanoma”.
For TEGTRGV, the “Cell Line the peptide is associated with (peptide recovered from phage library selection on this NCI-60 cell line)” value was “RXF393 Renal”.
In the case of GVLEGRR, the “Cell Line (NCI-60 cell line the peptide and its motif are associated with)” value is reported as “UACC 257 Melanoma”.
For YYAGGLK, the “Cell Line with which the peptide” value was “Hop-62-Lung”.
For DGAGSLR, the “Cell Line (NCI-60 cell line the peptide and its motif are associated with)” value was “OVCAR-5 Ovarian”.
For HNGRLEV, the “Cell Line with which the peptide” value was “Hop-62-Lung”.
In the case of GVRWNWS, the “Cell Line the peptide is associated with (peptide recovered from phage library selection on this NCI-60 cell line)” value is reported as “RXF393 Renal”.
With GGGSDGV the “Cell Line with which the peptide” value was “CCRF-CEM Leukemia”.
With GSGGANL the “Cell Line (NCI-60 cell line the peptide and its motif are associated with)” value was “DU-145 Prostate”.
In the case of HGLVTHN, the “Cell Line (NCI-60 cell line the peptide is associated with)” value is reported as “MALME-3M Melanoma”.
In the case of YWFIGLG, the “Cell Line with which the peptide” value is reported as “EKVX-Lung”.
RGLRSVN was tested, and the “Cell Line with which the peptide” value was “H226-Lung”.
With LVRDGVL the “Cell Line (NCI-60 cell line the peptide is associated with)” value was “MALME-3M Melanoma”.
For RSGSSVY, the “Cell Line with which the peptide” value was “H23-Lung”.
In the case of LLSAARF, the “Cell Line the peptide is associated with (peptide recovered from phage library selection on this NCI-60 cell line)” value is reported as “MDA-MB-231 Breast”.
FTSGVSW was tested, and the “Cell Line (NCI-60 cell line the peptide is associated with)” value was “COLO-205-Colon”.
FPARGED was tested, and the “Cell Line the peptide is associated with (peptide recovered from phage library selection on this NCI-60 cell line)” value was “A498 Renal”.
For GGRLLRA, the “Cell Line (NCI-60 cell line the peptide and its motif are associated with)” value was “DU-145 Prostate”.
With TYCDRAV the “Cell Line the peptide is associated with (peptide recovered from phage library selection on this NCI-60 cell line)” value was “BT-549 Breast”.
In the case of LGGRTIS, the “Cell Line (NCI-60 cell line the peptide and its motif are associated with)” value is reported as “DU-145 Prostate”.
VGLGNSA was tested, and the “Cell Line (NCI-60 cell line the peptide and its motif are associated with)” value was “SK-MEL-2 Melanoma”.
In the case of NSQRSSV, the “Cell Line (NCI-60 cell line the peptide and its motif are associated with)” value is reported as “UACC 257 Melanoma”.
With WAGSNYS the “Cell Line (NCI-60 cell line the peptide is associated with)” value was “SNB-75 CNS”.
In the case of LRGSVGR, the “Cell Line (NCI-60 cell line the peptide and its motif are associated with)” value is reported as “SK-MEL-28 Melanoma”.
With AASSWAV the “Cell Line (NCI-60 cell line the peptide and its motif are associated with)” value was “M14 Melanoma”.
For RKPGGGR, the “Cell Line (NCI-60 cell line the peptide is associated with)” value was “HT-29 Colon”.
In the case of PRGLGVG, the “Cell Line (NCI-60 cell line the peptide and its motif are associated with)” value is reported as “SK-MEL-2 Melanoma”.
With RGVVSGV the “Cell Line with which the peptide” value was “Hop-92-Lung”.
For QGGRSGV, the “Cell Line the peptide is associated with (peptide recovered from phage library selection on this NCI-60 cell line)” value was “A498 Renal”.
For EGLVSVV, the “Cell Line with which the peptide” value was “Molt-4-Leukemia”.
In the case of RSGRVSN, the “Cell Line (NCI-60 cell line the peptide and its motif are associated with)” value is reported as “SK-OV-3-3 Ovarian”.
SRLSYYA was tested, and the “Cell Line (NCI-60 cell line the peptide is associated with)” value was “KM-12C Colon”.
For GGGLPVD, the “Cell Line the peptide is associated with (peptide recovered from phage library selection on this NCI-60 cell line)” value was “MDA-MB-231 Breast”.
VSGDGGS was tested, and the “Cell Line (NCI-60 cell line the peptide is associated with)” value was “SNB-75 CNS”.
With ARGSLRV the “Cell Line (NCI-60 cell line the peptide is associated with)” value was “SNB-19 CNS; also recorded: SF-539 CNS”.
For PWYDGSV, the “Cell Line (NCI-60 cell line the peptide and its motif are associated with)” value was “OVCAR-3 Ovarian”.
DLGLRPV was tested, and the “Cell Line with which the peptide” value was “Molt-4-Leukemia”.
HGYRAGG was tested, and the “Cell Line with which the peptide” value was “Hop-62-Lung”.
For RAVGRVA, the “Cell Line with which the peptide” value was “HL-60-Leukemia”.
PTGEGLR was tested, and the “Cell Line (NCI-60 cell line the peptide and its motif are associated with)” value was “SK-MEL-5 Melanoma”.
In the case of GAAASGY, the “Cell Line (NCI-60 cell line the peptide is associated with)” value is reported as “SW620-Colon”.
For VRANGGS, the “Cell Line the peptide is associated with (peptide recovered from phage library selection on this NCI-60 cell line)” value was “MDA-MB-231 Breast”.
RRDGLVE was tested, and the “Cell Line (NCI-60 cell line the peptide and its motif are associated with)” value was 786-0 Renal.
For LSLAGAG, the “Cell Line (NCI-60 cell line the peptide is associated with)” value was “HT-29 Colon”.
In the case of FGGSGRG, the “Cell Line (NCI-60 cell line the peptide is associated with)” value is reported as “LOX-IMVI Melanoma”.
For WTVGGRV, the “Cell Line the peptide is associated with (peptide recovered from phage library selection on this NCI-60 cell line)” value was “A498 Renal”.
In the case of AASVGVA, the “Cell Line the peptide is associated with (peptide recovered from phage library selection on this NCI-60 cell line)” value is reported as “MDA-MB-231 Breast”.
For KGSVLML, the “Cell Line the peptide is associated with (peptide recovered from phage library selection on this NCI-60 cell line)” value was “NCI/ADR-RES Breast”.
In the case of AVSGRGW, the “Cell Line with which the peptide” value is reported as “Molt-4-Leukemia”.
With GCGGVRD the “Cell Line (NCI-60 cell line the peptide is associated with)” value was “HT-29 Colon”.
With GSSHDAL the “Cell Line (NCI-60 cell line the peptide is associated with)” value was “SNB-19 CNS; also recorded: SF-539 CNS”.
With DLDGRVV the “Cell Line (NCI-60 cell line the peptide is associated with)” value was “COLO-205-Colon”.
In the case of RDGRAVR, the “Cell Line (NCI-60 cell line the peptide is associated with)” value is reported as “KM-12C Colon”.
In the case of SVYALRS, the “Cell Line (NCI-60 cell line the peptide is associated with)” value is reported as “COLO-205-Colon”.
In the case of AGPSRGP, the “Cell Line (NCI-60 cell line the peptide and its motif are associated with)” value is reported as “UACC 257 Melanoma”.
With GPGGSKR the “Cell Line the peptide is associated with (peptide recovered from phage library selection on this NCI-60 cell line)” value was “SN12C Renal”.

From patent US7781565B2 (priority 2006, dated 2010)
